Source: patent US9695155B2, “Herbicidal substituted pyrimidinyloxy benzene compounds” (E. I. DU PONT DE NEMOURS AND COMPANY, priority 2013, dated 2017)

Experiments:
cupgrass, woolly [1] = assay: Test C postemergence; format: in vivo, Eriochloa villosa; settings: for Plant response rating (0 to 100), Cupgrass, Woolly: postemergence; for Plant response rating, Cupgrass, Woolly: Postemergence, scale 0 to 100 (0 no effect, 100 complete control)
From the text: (§1) Seeds of plant species selected from blackgrass (Alopecurus myosuroides), Italian ryegrass (Lolium multiflorum), wheat, winter (winter wheat, Triticum aestivum), galium (catchweed bedstraw, Galium aparine), corn (Zea mays), large (Lg) crabgrass (Digitaria sanguinalis), giant foxtail (Setaria faberii), johnsongrass (Sorghum halepense), lambsquarters (Chenopodium album), morningglory (Ipomoea coccinea), yellow nutsedge (Cyperus esculentus), pigweed (Amaranthus retroflexus), ragweed (common ragweed, Ambrosia elatior), soybean (Glycine max), barnyardgrass (Echinochloa crus-galli), oilseed rape (Brassica napus), waterhemp (common waterhemp, Amaranthus rudis), kochia (Kochia scoparia), wild oat (Avena fatua), surinam grass (Brachiaria decumbens), foxtail, green (green foxtail, Setaria viridis), goosegrass (Eleusine indica), bromegrass, downy (downy bromegrass, Bromus tectorum), nightshade (eastern black nightshade, Solanum ptycanthum), cocklebur (common cocklebur, Xanthium strumarium), cupgrass, woolly (woolly cupgrass, Eriochloa villosa), bermudagrass (Cynodon dactylon), sunflower, (common oilseed sunflower, Helianthus annuus), Russian thistle (Salsola kali), and velvetleaf (Abutilon theophrasti) were planted into a blend of loam soil and sand and treated preemergence with test chemicals formulated in a non-phytotoxic solvent mixture which included a surfactant.
(§2) At the same time, plants selected from these crop and weed species and also barley, winter (winter barley, Hordeum vulgare), windgrass (Apera spica-venti), chickweed (common chickweed, Stellaria media), deadnettle (henbit deadnettle, Lamium amplexicaule), and canarygrass (littleseed canarygrass, Phalaris minor) were planted in pots containing Redi-Earth® planting medium (Scotts Company, 14111 Scottslawn Road, Marysville, Ohio 43041) comprising spaghnum peat moss, vermiculite, wetting agent and starter nutrients and treated with postemergence applications of test chemicals formulated in the same manner. Plants ranged in height from 2 to 18 cm (1- to 4-leaf stage) for postemergence treatments. Treated plants and controls were maintained in a greenhouse for 13 to 15 days, after which time all species were compared to controls and visually evaluated. Plant response ratings, summarized in Table C, are based on a scale of 0 to 100 where 0 is no effect and 100 is complete control. A dash (-) response means no test result.

goosegrass [2] = assay: Test C preemergence; format: in vivo, Eleusine indica; settings: for Goosegrass plant response rating: preemergence, scale 0 (no effect) to 100 (complete control)
From the text: as §1, §2

foxtail, green [3] = assay: Test C preemergence; format: in vivo, Setaria viridis; settings: for Foxtail, Green plant response rating: preemergence, scale 0 (no effect) to 100 (complete control)
From the text: as §1, §2

nightshade = assay: Test C preemergence; format: in vivo, Solanum ptycanthum; settings: for Nightshade plant response rating: preemergence, scale 0 (no effect) to 100 (complete control)
From the text: as §1, §2

bromegrass, downy = assay: Test C preemergence; format: in vivo, Bromus tectorum; settings: for Bromegrass, Downy plant response rating: preemergence, scale 0 (no effect) to 100 (complete control)
From the text: as §1, §2

Russian thistle [4] = assay: Test D preemergence; format: in vivo, Salsola kali; parameters: key: 0 = no effect, 100 = complete control
In short: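 Plant response is a visual score from 0 (no effect) to 100 (complete control) relative to controls. Plants were kept in a controlled growth environment for 7 to 21 days after spraying. Preemergence treatments went onto silt loam soil; postemergence ones onto 1- to 4-leaf seedlings.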

foxtail, green [5] = assay: Test C postemergence; format: in vivo, Setaria viridis; settings: for Plant response rating (0 to 100), Foxtail, Green: postemergence
From the text: as §1, §2

barley, winter = assay: Test C postemergence; format: in vivo, Hordeum vulgare; settings: for Plant response rating (0 to 100), Barley: postemergence; for Plant response rating, Barley: Postemergence, scale 0 to 100 (0 no effect, 100 complete control)
From the text: as §1, §2

kochia = assay: Test C preemergence; format: in vivo, Kochia scoparia; settings: for Kochia plant response rating: preemergence, scale 0 (no effect) to 100 (complete control)
From the text: as §1, §2

cupgrass, woolly [6] = assay: Test C preemergence; format: in vivo, Eriochloa villosa; settings: for Cupgrass, Woolly plant response rating: preemergence, scale 0 (no effect) to 100 (complete control)
From the text: as §1, §2

Russian thistle [7] = assay: Test D postemergence; format: in vivo, Salsola kali
From the text: Seeds of plant species selected from bluegrass (annual bluegrass, Poa annua), blackgrass (Alopecurus myosuroides), canarygrass (littleseed canarygrass, Phalaris minor), chickweed (common chickweed, Stellaria media), galium (catchweed bedstraw, Galium aparine), bromegrass, downy (downy bromegrass, Bromus tectorum), field poppy (Papaver rhoeas), field violet (Viola arvensis), green foxtail (Setaria viridis), deadnettle (henbit deadnettle, Lamium amplexicaule), Italian ryegrass (Lolium multiflorum), kochia (Kochia scoparia), lambsquarters (Chenopodium album), oilseed rape (Brassica napus), pigweed (Amaranthus retroflexus), chamomile (scentless chamomile, Matricaria inodora), Russian thistle (Salsola kali), speedwell (bird's-eye speedwell, Veronica persica), spring barley (Hordeum vulgare), spring wheat (Triticum aestivum), wild buckwheat (Polygonum convolvulus), wild mustard (Sinapis arvensis), wild oat (Avena fatua), wild radish (Raphanus raphanistrum), windgrass (Apera spica-venti), winter barley (Hordeum vulgare), and winter wheat (Triticum aestivum) were planted into a silt loam soil and treated preemergence with test chemicals formulated in a non-phytotoxic solvent mixture which included a surfactant.
At the same time, these species were planted in pots containing Redi-Earth® planting medium (Scotts Company, 14111 Scottslawn Road, Marysville, Ohio 43041) comprising spaghnum peat moss, vermiculite, wetting agent and starter nutrients and treated with postemergence applications of the test chemicals formulated in the same manner. Plants ranged in height from 2 to 18 cm (1- to 4-leaf stage). Treated plants and controls were maintained in a controlled growth environment for 7 to 21 days after which time all species were compared to controls and visually evaluated. Plant response ratings, summarized in Table D, are based on a scale of 0 to 100 where 0 is no effect and 100 is complete control. A dash (-) response means no test result.

surinam grass = assay: Test C preemergence; format: in vivo, Brachiaria decumbens; settings: for Surinam Grass plant response rating: preemergence, scale 0 (no effect) to 100 (complete control)
From the text: as §1, §2

cocklebur = assay: Test C preemergence; format: in vivo, Xanthium strumarium; settings: for Cocklebur plant response rating: preemergence, scale 0 (no effect) to 100 (complete control)
From the text: as §1, §2

goosegrass [8] = assay: Test C postemergence; format: in vivo, Eleusine indica; settings: for Plant response rating (0 to 100), Goosegrass: postemergence; for Plant response rating, Goosegrass: Postemergence, scale 0 to 100 (0 no effect, 100 complete control)
From the text: as §1, §2

[9] = Preemergence, 31 g ai/ha, scale 0 to 100, 0 no effect, 100 complete control

Clc1cnc(Oc2ccccc2-n2cc(Br)cn2)nc1 [Compound 7, 2-[2-(4-bromo-1H-pyrazol-1-yl)phenoxy]-5-chloropyrimidine]
Plant response rating (0 to 100), Cupgrass, Woolly (cupgrass, woolly [1]; 125 g ai/ha): 25 | Plant response rating (0 to 100), Cupgrass, Woolly (cupgrass, woolly [1]; 250 g ai/ha): 25 | Plant response rating, Cupgrass, Woolly (cupgrass, woolly [1]; 31 g ai/ha, 13 to 15 days): 10 | Plant response rating, Cupgrass, Woolly (cupgrass, woolly [1]; 62 g ai/ha): 20 | Goosegrass plant response rating (goosegrass [2]; 62 g ai/ha): 85 | Goosegrass plant response rating (goosegrass [2]; 125 g ai/ha): 95 | Goosegrass plant response rating (goosegrass [2]; 250 g ai/ha): 100 | Plant response rating, Goosegrass (goosegrass [2]; [9]): 65 | Foxtail, Green plant response rating (foxtail, green [3]; 62 g ai/ha): 90 | Foxtail, Green plant response rating (foxtail, green [3]; 125 g ai/ha): 90 | Foxtail, Green plant response rating (foxtail, green [3]; 250 g ai/ha): 95 | Plant response rating, Foxtail, Green (foxtail, green [3]; [9]): 50 | Nightshade plant response rating (nightshade; 62 g ai/ha): 95 | Nightshade plant response rating (nightshade; 125 g ai/ha): 95 | Nightshade plant response rating (nightshade; 250 g ai/ha): 98 | Plant response rating, Nightshade (nightshade; [9]): 80 | Bromegrass, Downy plant response rating (bromegrass, downy; 62 g ai/ha): 5 | Bromegrass, Downy plant response rating (bromegrass, downy; 125 g ai/ha): 45 | Bromegrass, Downy plant response rating (bromegrass, downy; 250 g ai/ha): 75 | Plant response rating, Bromegrass, Downy (bromegrass, downy; [9]): 0 | Plant response rating, Russian Thistle (Russian thistle [4]; 31 g ai/ha, scale 0 (no effect) to 100 (complete control)): 0 | Plant response rating, Russian Thistle (Russian thistle [4]; 62 g ai/ha, scale 0-100): 0 | Plant response rating, Russian Thistle (Russian thistle [4]; 125 g ai/ha, scale 0-100): 0 | Plant response rating, Russian Thistle (Russian thistle [4]; 250 g ai/ha, scale 0-100): 0 | Plant response rating (0 to 100), Foxtail, Green (foxtail, green [5]; 125 g ai/ha): 50 | Plant response rating (0 to 100), Foxtail, Green (foxtail, green [5]; 250 g ai/ha): 98 | Plant response rating, Foxtail, Green (foxtail, green [5]; Postemergence, 31 g ai/ha, scale 0 to 100 (0 no effect, 100 complete control), 13 to 15 days): 0 | Plant response rating (0 to 100), Barley (barley, winter; 125 g ai/ha): 10 | Plant response rating (0 to 100), Barley (barley, winter; 250 g ai/ha): 15 | Plant response rating, Barley (barley, winter; 31 g ai/ha, 13 to 15 days): 0 | Plant response rating, Barley (barley, winter; 62 g ai/ha): 0 | Kochia plant response rating (kochia; 62 g ai/ha): 95 | Kochia plant response rating (kochia; 125 g ai/ha): 100 | Kochia plant response rating (kochia; 250 g ai/ha): 100 | Plant response rating, Kochia (kochia; [9]): 55 | Cupgrass, Woolly plant response rating (cupgrass, woolly [6]; 62 g ai/ha): 55 | Cupgrass, Woolly plant response rating (cupgrass, woolly [6]; 125 g ai/ha): 98 | Cupgrass, Woolly plant response rating (cupgrass, woolly [6]; 250 g ai/ha): 98 | Plant response rating, Cupgrass, Woolly (cupgrass, woolly [6]; [9]): 15 | Plant response rating, Russian Thistle (Russian thistle [7]; 16 g ai/ha, scale 0-100): 0 | Plant response rating, Russian Thistle (Russian thistle [7]; 31 g ai/ha, scale 0 to 100 (0 no effect, 100 complete control)): 0 | Plant response rating, Russian Thistle (Russian thistle [7]; 62 g ai/ha, scale 0 to 100 (0 no effect, 100 complete control)): 30 | Plant response rating, Russian Thistle (Russian thistle [7]; 125 g ai/ha, scale 0 to 100 (0 no effect, 100 complete control)): 30 | Plant response rating, Russian Thistle (Russian thistle [7]; 250 g ai/ha, scale 0 to 100 (0 no effect, 100 complete control)): 70 | Surinam Grass plant response rating (surinam grass; 62 g ai/ha): 5 | Surinam Grass plant response rating (surinam grass; 125 g ai/ha): 30 | Surinam Grass plant response rating (surinam grass; 250 g ai/ha): 85 | Plant response rating, Surinam Grass (surinam grass; [9]): 0 | Cocklebur plant response rating (cocklebur; 62 g ai/ha): 5 | Cocklebur plant response rating (cocklebur; 125 g ai/ha): 5 | Cocklebur plant response rating (cocklebur; 250 g ai/ha): 5 | Plant response rating, Cocklebur (cocklebur; [9]): 0 | Plant response rating (0 to 100), Goosegrass (goosegrass [8]; 125 g ai/ha): 15 | Plant response rating (0 to 100), Goosegrass (goosegrass [8]; 250 g ai/ha): 15 | Plant response rating, Goosegrass (goosegrass [8]; 31 g ai/ha, 13 to 15 days): 0 | Plant response rating, Goosegrass (goosegrass [8]; 62 g ai/ha): 5
